Among the data in ChEMBL document CHEMBL1144925, “Binding structures and potencies of oxidosqualene cyclase inhibitors with the homologous squalene-hopene cyclase” (J Med Chem, 2003) are IC50 values, retold here.

One assay has as its target T1, Lanosterol synthase (Homo sapiens, UniProt P48449).
T1 sequence (P48449 whole entry): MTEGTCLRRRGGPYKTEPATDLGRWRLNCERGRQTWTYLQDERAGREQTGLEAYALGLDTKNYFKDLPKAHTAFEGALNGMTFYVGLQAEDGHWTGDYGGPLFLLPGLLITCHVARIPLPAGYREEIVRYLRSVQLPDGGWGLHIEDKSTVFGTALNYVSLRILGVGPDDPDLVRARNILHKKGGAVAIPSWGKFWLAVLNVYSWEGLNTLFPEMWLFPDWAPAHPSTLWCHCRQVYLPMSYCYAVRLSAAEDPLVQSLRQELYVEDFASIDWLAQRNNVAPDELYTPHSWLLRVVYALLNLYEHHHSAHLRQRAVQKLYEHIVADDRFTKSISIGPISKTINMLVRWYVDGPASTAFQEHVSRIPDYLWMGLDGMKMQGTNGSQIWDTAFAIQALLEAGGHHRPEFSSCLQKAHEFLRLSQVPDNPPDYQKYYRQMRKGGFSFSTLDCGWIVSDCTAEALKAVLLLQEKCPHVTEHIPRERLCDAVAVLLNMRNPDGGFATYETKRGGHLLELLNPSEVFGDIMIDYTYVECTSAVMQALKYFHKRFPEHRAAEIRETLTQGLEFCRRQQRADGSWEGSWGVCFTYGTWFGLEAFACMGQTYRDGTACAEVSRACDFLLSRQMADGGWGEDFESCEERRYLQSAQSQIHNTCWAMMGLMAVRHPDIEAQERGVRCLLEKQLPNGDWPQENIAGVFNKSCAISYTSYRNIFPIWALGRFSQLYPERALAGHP
The experiment in a line: Inhibitory activity against Oxidosqualene-lanosterol cyclase from human liver microsomes. (In general: Microsomes from liver hold many membrane-bound enzymes, among them those of drug oxidation.)

A further assay concerns the target T2, Squalene--hopene cyclase (Alicyclobacillus acidocaldarius subsp. acidocaldarius (strain ATCC27009 / DSM 446 / 104-1A) (Bacillus acidocaldarius), UniProt P33247).
T2 sequence (P33247 whole entry): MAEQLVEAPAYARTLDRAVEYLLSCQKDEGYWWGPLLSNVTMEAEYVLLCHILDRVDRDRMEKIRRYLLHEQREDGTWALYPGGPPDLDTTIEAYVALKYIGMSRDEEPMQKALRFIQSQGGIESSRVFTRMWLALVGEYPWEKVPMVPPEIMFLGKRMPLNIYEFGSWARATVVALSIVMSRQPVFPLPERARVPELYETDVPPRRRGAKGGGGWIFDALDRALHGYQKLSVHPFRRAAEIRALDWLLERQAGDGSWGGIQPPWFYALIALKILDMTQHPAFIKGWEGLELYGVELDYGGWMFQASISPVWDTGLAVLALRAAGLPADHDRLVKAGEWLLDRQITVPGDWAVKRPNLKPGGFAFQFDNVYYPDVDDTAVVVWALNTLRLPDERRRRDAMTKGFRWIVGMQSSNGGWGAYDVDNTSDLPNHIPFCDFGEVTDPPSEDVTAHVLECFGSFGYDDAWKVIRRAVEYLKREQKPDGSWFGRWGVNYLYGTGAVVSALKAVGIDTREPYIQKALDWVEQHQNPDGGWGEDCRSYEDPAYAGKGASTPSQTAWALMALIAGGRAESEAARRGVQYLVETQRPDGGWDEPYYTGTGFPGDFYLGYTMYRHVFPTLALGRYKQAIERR
The experiment in a line: Inhibitory activity against squalene hopene cyclase from Alicyclobacillus acidocaldarius.

As a reminder, the IC50 is the concentration at which inhibition is half-maximal. Read a high IC50 as weaker potency.

`O=C(c1ccc(Cl)cc1)N1CCC(=Cc2ccc(C3=NCCO3)cc2)CC1`: the results for the IC50 against Lanosterol synthase and against Squalene--hopene cyclase were 36 nM and 2800 nM, respectively.
The matching figures for `CN(CCCCCCOc1ccc(C(=O)c2ccc(Br)cc2)c(F)c1)C1CC1`: 98 nM and 38 nM.
Take `C=CCN(C)CCCCCCOc1ccc2c(C)nn(C)c2c1`: the IC50 at Lanosterol synthase is 240 nM; against Squalene--hopene cyclase, 332 nM.
As to `CN(C(=O)Oc1ccc(Cl)cc1)[C@H]1CC[C@H](c2ccc(CN3CCCCC3)cc2)CC1`, the IC50 against Lanosterol synthase is 11.3 nM.
In the case of `C=CCN(C)C/C=C/COc1ccc2c(-c3ccc(Br)cc3)csc2c1`, the IC50 amounted to 13.5 nM at Lanosterol synthase and 75 nM against Squalene--hopene cyclase.
On to `C=CCN(C)CCCCCCOC1CCN(C(=O)c2ccc(F)cc2)CC1`, for which the IC50 came out at 71 nM at Lanosterol synthase and 1200 nM at Squalene--hopene cyclase.
On the same counts, the results for `CN(C[C@H]1C[C@@H]1COc1ccc(C(=O)c2ccc(Br)cc2)cc1)C1CC1` are 22 nM and 62 nM.
Turning to `C=CCN(C[C@H]1C[C@@H]1COc1ccc(C(=O)c2ccc(Br)cc2)cc1)C1CC1`, on Lanosterol synthase, inhibition was half-maximal at 223 nM (IC50).
Take `C=CCN(C)CCCCCCOc1ccc2c(c1)CON=C2c1ccc(Br)cc1`: the IC50 on Lanosterol synthase is 4.1 nM; against Squalene--hopene cyclase, 172 nM.
The matching figures for `C=CCN(C)CCCCCCOc1ccc2c(-c3ccc(Br)cc3)noc2c1`: 380 nM and 75 nM.
The compound `C=CCN(C)CCCCCCOc1ccc2c(-c3ccc(Br)cc3)nsc2c1` gave an IC50 at Lanosterol synthase of 2.9 nM.
Same read-out and setting: for `C=CCN(C)C/C=C/COc1ccc2c(-c3ccc(Br)cc3)coc2c1` the value was 500 nM; for `C=CCN(C)CCCCCCOc1ccc(-c2nsc3cc(Br)ccc23)cc1`, 1900 nM.
With `CN(C[C@H]1C[C@@H]1COc1ccc(C(=O)c2ccc(Br)cc2)c(F)c1)C1CC1`, the values for the IC50 at Lanosterol synthase and against Squalene--hopene cyclase were 439 nM and 50 nM, respectively.
In the case of `C=CCN(C)C/C=C/COc1ccc2c(-c3ccc(Br)cc3)noc2c1`, the IC50 at Lanosterol synthase was 29 nM; against Squalene--hopene cyclase, 49 nM.
The matching figures for `C=CCN(C)C/C=C/COc1ccc(-c2nsc3cc(Br)ccc23)cc1`: 1860 nM and 130 nM.
Take `CN(C(=O)Oc1ccc(Cl)cc1)[C@H]1CC[C@H](c2ccc(C[N+]3([O-])CCCCC3)cc2)CC1`: the figures for the IC50 against Lanosterol synthase and against Squalene--hopene cyclase were 640 nM and 123 nM, respectively.
On the same counts, the results for `CN(CCCCCCOC1CCN(C(=O)c2ccc(F)cc2)CC1)C1CC1` are 48 nM and 760 nM.
In turn, `C=CCN(C)CCCCCCOc1ccc2c(-c3ccc(Br)cc3)nn(C)c2c1` had an IC50 on Lanosterol synthase of 19.6 nM.
Same read-out and setting: the value for `C=CCN(C)CCCCCCOc1ccc2c(-c3ccc(Br)cc3)n[nH]c2c1` was 39 nM.
Regarding `C=CCN(C)C/C=C/COc1ccc(C(=O)c2ccc(Br)cc2)cc1`, the IC50 amounted to 3 nM against Lanosterol synthase and 40 nM against Squalene--hopene cyclase.
As for `C=CCN(C)CCCCCCOc1ccc(C(=O)c2ccc(Br)cc2)cc1`, the IC50 was 5.4 nM against Lanosterol synthase and 96 nM against Squalene--hopene cyclase.
Consider `C=CCN(C)CCCCCCOc1ccc2c(-c3ccc(Br)cc3)coc2c1`, for which the IC50 at Lanosterol synthase was found to be 610 nM.
Same read-out and setting: for `C=CCN(C)CCCCCCOc1ccc2c(-c3ccc(Br)cc3)nccc2c1` the value was 3.5 nM; for `C=CCN(C)Cc1ccc(-c2ccc(C(=O)c3ccc(Br)cc3)cc2)cc1`, 16 nM.
